{
  "source": "ChEMBL document CHEMBL5055685",
  "about": "“Discovery of the First Potent IDO1/IDO2 Dual Inhibitors: A Promising Strategy for Cancer Immunotherapy” (J Med Chem, 2021)",
  "key": {"[1]": {"target": "Serine/threonine-protein kinase BRSK2 (Homo sapiens) (UniProt Q8IWQ3)", "sequence (Q8IWQ3 whole entry)": "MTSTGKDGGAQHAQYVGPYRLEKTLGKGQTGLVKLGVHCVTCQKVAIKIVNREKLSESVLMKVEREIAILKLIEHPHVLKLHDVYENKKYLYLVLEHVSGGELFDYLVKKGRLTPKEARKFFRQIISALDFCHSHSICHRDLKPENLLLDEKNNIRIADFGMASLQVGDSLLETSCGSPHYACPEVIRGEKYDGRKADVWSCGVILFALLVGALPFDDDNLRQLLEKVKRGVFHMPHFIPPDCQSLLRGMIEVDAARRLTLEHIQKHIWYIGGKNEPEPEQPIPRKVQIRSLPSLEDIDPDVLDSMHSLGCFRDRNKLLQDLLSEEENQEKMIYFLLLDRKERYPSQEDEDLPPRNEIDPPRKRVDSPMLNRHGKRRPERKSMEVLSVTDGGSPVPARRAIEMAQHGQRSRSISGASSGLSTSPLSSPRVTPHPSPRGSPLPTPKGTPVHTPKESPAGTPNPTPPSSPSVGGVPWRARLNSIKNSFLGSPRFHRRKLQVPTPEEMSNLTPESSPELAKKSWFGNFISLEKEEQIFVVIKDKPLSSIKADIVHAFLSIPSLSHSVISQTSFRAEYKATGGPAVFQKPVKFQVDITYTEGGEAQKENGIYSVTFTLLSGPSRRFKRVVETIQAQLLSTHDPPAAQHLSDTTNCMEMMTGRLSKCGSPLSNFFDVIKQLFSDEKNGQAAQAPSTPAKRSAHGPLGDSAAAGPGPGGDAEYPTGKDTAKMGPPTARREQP", "assay": "Inhibition of BRSK2 (unknown origin) at 1 uM"}, "[2]": {"assay": "Efflux ratio of apparent permeability across basolateral to apical over apical to basolateral side in human Caco-2 cells", "type": "ADME, cell-based"}, "[3]": {"target": "Interleukin-1 receptor-associated kinase 4 (Homo sapiens) (UniProt Q9NWZ3)", "assay": "Inhibition of IRAK4 (unknown origin) at 1 uM"}, "[4]": {"target": "Ribosomal protein S6 kinase beta-1 (Homo sapiens) (UniProt P23443)", "sequence (P23443 whole entry, looked up)": "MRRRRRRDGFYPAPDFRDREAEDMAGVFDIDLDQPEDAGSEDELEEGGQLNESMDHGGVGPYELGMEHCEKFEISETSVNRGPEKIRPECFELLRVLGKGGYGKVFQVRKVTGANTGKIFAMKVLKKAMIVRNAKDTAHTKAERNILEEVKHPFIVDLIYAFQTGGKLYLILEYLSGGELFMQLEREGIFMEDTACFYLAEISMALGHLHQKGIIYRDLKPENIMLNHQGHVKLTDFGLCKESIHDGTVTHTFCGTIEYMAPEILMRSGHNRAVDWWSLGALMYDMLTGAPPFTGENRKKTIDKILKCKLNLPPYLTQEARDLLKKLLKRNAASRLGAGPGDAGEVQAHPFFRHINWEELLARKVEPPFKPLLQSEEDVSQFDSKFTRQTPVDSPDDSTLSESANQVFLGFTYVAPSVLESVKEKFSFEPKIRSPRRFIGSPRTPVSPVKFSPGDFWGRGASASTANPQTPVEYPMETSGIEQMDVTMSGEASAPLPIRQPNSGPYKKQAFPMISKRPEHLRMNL", "assay": "Inhibition of p70S6K (unknown origin) at 1 uM"}, "[5]": {"target": "BDNF/NT-3 growth factors receptor (Homo sapiens) (UniProt Q16620)", "assay": "Inhibition of TRKB (unknown origin) at 1 uM"}, "[6]": {"target": "CDK2/Cyclin A2 (Homo sapiens) (UniProt P24941+P20248)", "assay": "Inhibition of CDK2/cyclin-A (unknown origin) at 1 uM", "type": "protein-complex assay"}, "[7]": {"target": "Indoleamine 2,3-dioxygenase 1 (Homo sapiens, UniProt P14902)", "assay": "Inhibition of IDO1 in IFNgamma-stimulated human HeLa cells assessed as reduction in kynurenine formation measured after 48 hrs by spectrophotometry"}, "[8]": {"target": "Indoleamine 2,3-dioxygenase 1 (Mus musculus) (UniProt P28776)", "assay": "In vivo inhibition of IDO1 in BALB/c mouse xenografted with human HCT-116 cells assessed as suppression of IDO1 mRNA expression in tumor by quantitative RT-PCR analysis", "type": "functional, organism-based"}, "[9]": {"target": "Ribosomal protein S6 kinase alpha-3 (Homo sapiens) (UniProt P51812)", "assay": "Inhibition of RSK2 (unknown origin) at 1 uM"}, "[10]": {"target": "Ribosomal protein S6 kinase alpha-6 (Homo sapiens) (UniProt Q9UK32)", "assay": "Inhibition of RSK4 (unknown origin) at 1 uM"}, "[11]": {"target": "Serine/threonine-protein kinase PLK4 (Homo sapiens) (UniProt O00444)", "assay": "Inhibition of PLK4 (unknown origin) at 1 uM"}, "[12]": {"target": "Receptor-interacting serine/threonine-protein kinase 3 (Homo sapiens) (UniProt Q9Y572)", "sequence (Q9Y572 whole entry, looked up)": "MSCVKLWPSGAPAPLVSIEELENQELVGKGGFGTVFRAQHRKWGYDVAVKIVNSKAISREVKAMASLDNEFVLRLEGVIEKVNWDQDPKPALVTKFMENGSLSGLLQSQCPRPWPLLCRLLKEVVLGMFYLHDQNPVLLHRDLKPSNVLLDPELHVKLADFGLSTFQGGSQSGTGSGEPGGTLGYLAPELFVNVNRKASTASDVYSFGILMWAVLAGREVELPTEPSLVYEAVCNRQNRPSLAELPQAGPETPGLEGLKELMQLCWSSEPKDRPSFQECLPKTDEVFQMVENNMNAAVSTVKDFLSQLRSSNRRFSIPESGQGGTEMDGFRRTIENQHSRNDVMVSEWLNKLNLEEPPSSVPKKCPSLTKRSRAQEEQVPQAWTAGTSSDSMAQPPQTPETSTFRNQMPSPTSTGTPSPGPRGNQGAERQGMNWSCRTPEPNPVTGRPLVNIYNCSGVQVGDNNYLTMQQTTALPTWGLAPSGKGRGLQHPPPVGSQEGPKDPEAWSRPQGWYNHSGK", "assay": "Inhibition of RIPK3 (unknown origin) at 1 uM"}, "[13]": {"assay": "Metabolic stability in rat liver microsomes assessed as rate constant", "type": "ADME, Microsome"}, "[14]": {"target": "MAP kinase-activated protein kinase 2 (Homo sapiens) (UniProt P49137)", "assay": "Inhibition of MAPKAPK2 (unknown origin) at 1 uM"}, "[15]": {"target": "Ribosomal protein S6 kinase alpha-1 (Homo sapiens) (UniProt Q15418)", "assay": "Inhibition of RSK1 (unknown origin) at 1 uM"}, "[16]": {"target": "cAMP-dependent protein kinase catalytic subunit beta (Homo sapiens) (UniProt P22694)", "assay": "Inhibition of PKAcb (unknown origin) at 1 uM"}, "[17]": {"assay": "Protein binding in Beagle dog plasma assessed as fraction unbound by equilibrium dialysis", "type": "ADME, cell-free, Canis lupus familiaris"}, "[18]": {"target": "Ribosomal protein S6 kinase alpha-4 (Homo sapiens) (UniProt O75676)", "assay": "Inhibition of MSK2 (unknown origin) at 1 uM"}, "[19]": {"target": "Protein kinase C gamma type (Homo sapiens) (UniProt P05129)", "assay": "Inhibition of PKCgamma (unknown origin)at 1 uM"}, "[20]": {"assay": "Half life in mouse liver microsomes", "type": "ADME, Microsome"}, "[21]": {"target": "Dual specificity mitogen-activated protein kinase kinase 3 (Homo sapiens) (UniProt P46734)", "assay": "Inhibition of MEK3 (unknown origin) at 1 uM"}, "HCT-116 [22]": {"test_system": "HCT-116", "assay": "Antitumor immunity in BALB/c mouse xenografted with human HCT-116 cells assessed as necrotic Treg cells in spleen by propidium iodide staining based flow cytometry analysis (reference value: 1.47 %)", "type": "functional"}, "HCT-116 [23]": {"test_system": "HCT-116", "assay": "Antitumor immunity in BALB/c mouse xenografted with human HCT-116 cells assessed as late Treg cells in tumor-draining lymph nodes by propidium iodide staining based flow cytometry analysis (reference value: 18.3 %)", "type": "functional"}, "[24]": {"target": "Serine/threonine-protein kinase PLK3 (Homo sapiens) (UniProt Q9H4B4)", "assay": "Inhibition of PLK3 (unknown origin) at 1 uM"}, "[25]": {"target": "Tyrosine-protein kinase receptor UFO (Homo sapiens) (UniProt P30530)", "assay": "Inhibition of AXL (unknown origin) at 1 uM"}, "[26]": {"target": "Discoidin domain-containing receptor 2 (Homo sapiens) (UniProt Q16832)", "assay": "Inhibition of DDR2 (unknown origin) at 1 uM"}, "[27]": {"target": "Serine/threonine-protein kinase pim-1 (Homo sapiens) (UniProt P11309)", "assay": "Inhibition of PIM1 (unknown origin) at 1 uM"}, "[28]": {"target": "Serine/threonine-protein kinase tousled-like 2 (Homo sapiens) (UniProt Q86UE8)", "assay": "Inhibition of TLK2 (unknown origin) at 1 uM"}, "[29]": {"target": "STE20-like serine/threonine-protein kinase (Homo sapiens) (UniProt Q9H2G2)", "assay": "Inhibition of SLK (unknown origin) at 1 uM"}, "[30]": {"target": "cAMP-dependent protein kinase catalytic subunit gamma (Homo sapiens) (UniProt P22612)", "assay": "Inhibition of PKAcg (unknown origin) at 1 uM"}, "[31]": {"target": "Serine/threonine-protein kinase N1 (Homo sapiens) (UniProt Q16512)", "sequence (Q16512 2-942 limits assumed)": "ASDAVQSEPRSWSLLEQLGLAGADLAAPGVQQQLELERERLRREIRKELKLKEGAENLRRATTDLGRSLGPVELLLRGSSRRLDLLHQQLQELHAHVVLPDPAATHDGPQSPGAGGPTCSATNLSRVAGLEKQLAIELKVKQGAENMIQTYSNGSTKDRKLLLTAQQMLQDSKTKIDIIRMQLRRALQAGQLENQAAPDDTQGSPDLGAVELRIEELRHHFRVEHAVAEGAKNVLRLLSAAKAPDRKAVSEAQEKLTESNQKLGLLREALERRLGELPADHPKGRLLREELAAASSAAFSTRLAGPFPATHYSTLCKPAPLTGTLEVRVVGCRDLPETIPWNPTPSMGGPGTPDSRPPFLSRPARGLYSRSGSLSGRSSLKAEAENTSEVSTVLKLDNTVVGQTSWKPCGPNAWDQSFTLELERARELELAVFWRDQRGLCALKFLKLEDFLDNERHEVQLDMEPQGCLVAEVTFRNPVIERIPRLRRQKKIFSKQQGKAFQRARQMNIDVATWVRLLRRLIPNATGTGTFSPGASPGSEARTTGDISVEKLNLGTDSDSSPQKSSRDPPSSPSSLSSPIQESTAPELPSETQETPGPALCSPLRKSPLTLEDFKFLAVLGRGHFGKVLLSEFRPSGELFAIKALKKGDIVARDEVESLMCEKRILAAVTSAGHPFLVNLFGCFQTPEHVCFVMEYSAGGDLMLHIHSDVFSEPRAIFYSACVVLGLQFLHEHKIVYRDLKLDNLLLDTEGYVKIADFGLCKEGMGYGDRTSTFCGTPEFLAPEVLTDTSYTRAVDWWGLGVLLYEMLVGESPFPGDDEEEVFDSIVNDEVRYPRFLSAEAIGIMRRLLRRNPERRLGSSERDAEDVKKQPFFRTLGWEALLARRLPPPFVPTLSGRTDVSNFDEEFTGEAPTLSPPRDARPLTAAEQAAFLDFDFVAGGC", "assay": "Inhibition of PKN1 (unknown origin) at 1 uM"}, "[32]": {"target": "Cyclin-dependent kinase 14/Cyclin-Y (Homo sapiens) (UniProt O94921+Q8ND76)", "assay": "Inhibition of CDK14/cyclin-Y (unknown origin) at 1 uM", "type": "protein-complex assay"}, "[33]": {"assay": "AUC (0 to infinity) in Sprague-Dawley rat at 50 mg/kg, po", "type": "ADME, organism-based", "set-up": "time infinity, dose 50 mg/kg, route po", "settings": "in vivo"}, "[34]": {"target": "Serine/threonine-protein kinase 33 (Homo sapiens) (UniProt Q9BYT3)", "sequence (Q9BYT3 whole entry, looked up)": "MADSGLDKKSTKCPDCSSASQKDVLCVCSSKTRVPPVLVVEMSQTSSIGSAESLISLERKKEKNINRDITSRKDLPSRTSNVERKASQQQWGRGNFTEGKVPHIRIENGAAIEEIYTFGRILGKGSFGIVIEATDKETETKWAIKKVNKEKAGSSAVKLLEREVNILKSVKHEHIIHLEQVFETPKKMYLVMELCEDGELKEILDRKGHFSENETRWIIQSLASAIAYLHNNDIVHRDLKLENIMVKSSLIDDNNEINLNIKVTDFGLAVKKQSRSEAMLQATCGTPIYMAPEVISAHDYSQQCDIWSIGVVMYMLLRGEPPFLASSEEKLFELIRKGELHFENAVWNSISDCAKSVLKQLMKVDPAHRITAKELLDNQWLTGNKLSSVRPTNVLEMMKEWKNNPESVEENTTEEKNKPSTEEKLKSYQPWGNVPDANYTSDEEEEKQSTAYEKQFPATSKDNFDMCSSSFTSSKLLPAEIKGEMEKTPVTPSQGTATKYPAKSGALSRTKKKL", "assay": "Inhibition of STK33 (unknown origin) at 1 uM"}, "[35]": {"target": "CDK1/Cyclin E (Homo sapiens) (UniProt P06493+P24864)", "assay": "Inhibition of CDK1/cyclinE (unknown origin) at 1 uM", "type": "protein-complex assay"}, "[36]": {"target": "Mitogen-activated protein kinase kinase kinase 7 (Homo sapiens) (UniProt O43318)", "assay": "Inhibition of TAK1 (unknown origin) at 1 uM"}, "[37]": {"target": "Serine/threonine-protein kinase 32C (Homo sapiens) (UniProt Q86UX6)", "assay": "Inhibition of STK32C (unknown origin) at 1 uM"}, "[38]": {"target": "CDK2/Cyclin O (Homo sapiens) (UniProt P24941+P22674)", "assay": "Inhibition of CDK2/cyclin-O (unknown origin) at 1 uM", "type": "protein-complex assay"}, "[39]": {"target": "G protein-coupled receptor kinase 3 (Homo sapiens) (UniProt P35626)", "assay": "Inhibition of GRK3 (unknown origin) at 1 uM"}, "[40]": {"target": "Serine/threonine-protein kinase PLK1 (Homo sapiens) (UniProt P53350)", "assay": "Inhibition of PLK1 (unknown origin) at 1 uM"}, "[41]": {"target": "Citron Rho-interacting kinase (Homo sapiens) (UniProt O14578)", "assay": "Inhibition of STK21 (unknown origin) at 1 uM"}, "[42]": {"target": "Serine/threonine-protein kinase 32B (Homo sapiens) (UniProt Q9NY57)", "assay": "Inhibition of STK32B (unknown origin) at 1 uM"}, "[43]": {"target": "Serine/threonine-protein kinase MRCK alpha (Homo sapiens) (UniProt Q5VT25)", "sequence (Q5VT25 whole entry)": "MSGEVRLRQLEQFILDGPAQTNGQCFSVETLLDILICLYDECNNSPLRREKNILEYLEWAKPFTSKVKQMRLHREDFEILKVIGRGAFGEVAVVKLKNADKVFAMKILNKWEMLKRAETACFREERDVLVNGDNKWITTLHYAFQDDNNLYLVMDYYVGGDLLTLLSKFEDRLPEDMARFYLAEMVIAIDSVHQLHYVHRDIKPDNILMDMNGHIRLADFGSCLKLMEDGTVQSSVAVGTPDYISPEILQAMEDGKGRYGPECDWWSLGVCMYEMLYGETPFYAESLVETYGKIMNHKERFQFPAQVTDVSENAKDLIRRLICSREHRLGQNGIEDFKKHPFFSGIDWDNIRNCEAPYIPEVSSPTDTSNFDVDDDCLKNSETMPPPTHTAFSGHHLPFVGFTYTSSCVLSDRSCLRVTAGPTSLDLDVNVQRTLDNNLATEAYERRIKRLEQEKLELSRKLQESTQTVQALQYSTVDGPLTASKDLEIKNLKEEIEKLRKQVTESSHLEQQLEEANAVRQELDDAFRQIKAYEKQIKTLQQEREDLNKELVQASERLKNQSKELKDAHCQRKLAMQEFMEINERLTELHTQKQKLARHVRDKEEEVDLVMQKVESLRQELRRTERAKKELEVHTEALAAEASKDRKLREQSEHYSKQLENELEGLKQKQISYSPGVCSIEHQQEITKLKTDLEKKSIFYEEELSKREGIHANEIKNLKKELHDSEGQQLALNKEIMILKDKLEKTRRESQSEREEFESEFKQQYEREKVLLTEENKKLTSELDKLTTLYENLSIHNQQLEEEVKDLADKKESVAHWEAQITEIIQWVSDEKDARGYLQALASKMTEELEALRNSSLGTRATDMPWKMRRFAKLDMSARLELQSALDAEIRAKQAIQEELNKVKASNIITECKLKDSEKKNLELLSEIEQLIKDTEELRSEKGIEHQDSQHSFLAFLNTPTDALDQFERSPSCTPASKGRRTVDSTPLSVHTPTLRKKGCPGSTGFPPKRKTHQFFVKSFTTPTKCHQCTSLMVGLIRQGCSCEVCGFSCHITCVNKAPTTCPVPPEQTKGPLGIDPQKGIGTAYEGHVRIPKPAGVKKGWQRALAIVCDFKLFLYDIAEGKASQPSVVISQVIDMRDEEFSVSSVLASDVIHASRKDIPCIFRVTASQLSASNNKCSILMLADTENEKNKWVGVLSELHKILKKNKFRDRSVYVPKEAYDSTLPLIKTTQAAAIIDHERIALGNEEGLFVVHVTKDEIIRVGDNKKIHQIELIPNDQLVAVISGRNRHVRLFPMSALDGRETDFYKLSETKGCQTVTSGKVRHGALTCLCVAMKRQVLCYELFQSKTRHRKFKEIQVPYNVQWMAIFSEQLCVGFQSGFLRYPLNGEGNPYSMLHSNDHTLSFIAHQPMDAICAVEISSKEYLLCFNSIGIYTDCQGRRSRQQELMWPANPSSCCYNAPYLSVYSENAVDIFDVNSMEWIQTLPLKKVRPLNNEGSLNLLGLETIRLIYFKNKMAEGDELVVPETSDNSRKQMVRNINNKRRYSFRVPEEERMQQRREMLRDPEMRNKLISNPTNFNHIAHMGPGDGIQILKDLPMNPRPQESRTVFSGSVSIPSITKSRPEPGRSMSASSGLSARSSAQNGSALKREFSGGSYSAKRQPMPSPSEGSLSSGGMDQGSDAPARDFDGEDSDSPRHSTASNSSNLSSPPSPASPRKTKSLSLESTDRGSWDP", "assay": "Inhibition of MRCKalpha (unknown origin) at 1 uM"}},
  "note": "Calls of active or inactive are those of the source. No cut-off for these calls is given here.",
  "data": [
    {"smiles": "OCCOCc1cn(CCNc2nonc2/C(=N/O)Nc2ccc(F)c(Br)c2)nn1", "values": [
      {"measurement": "inhibition", "setting": "[1]", "value": "inactive"},
      {"measurement": "efflux ratio", "setting": "[2]", "value": 6.4},
      {"measurement": "inhibition", "setting": "[3]", "value": "inactive"},
      {"measurement": "inhibition", "setting": "[4]", "value": "inactive"},
      {"measurement": "inhibition", "setting": "[5]", "value": "inactive"},
      {"measurement": "inhibition", "setting": "[6]", "value": "inactive"},
      {"measurement": "IC50", "setting": "[7]", "value": 2.16, "unit": "nM"},
      {"measurement": "inhibition", "setting": "[8]", "value": "Active"},
      {"measurement": "inhibition", "setting": "[9]", "value": "inactive"},
      {"measurement": "inhibition", "setting": "[10]", "value": "inactive"},
      {"measurement": "inhibition", "setting": "[11]", "value": "inactive"},
      {"measurement": "inhibition", "setting": "[12]", "value": "inactive"},
      {"measurement": "k el", "setting": "[13]", "value": 0.000545, "unit": "s⁻¹"},
      {"measurement": "inhibition", "setting": "[14]", "value": "inactive"},
      {"measurement": "inhibition", "setting": "[15]", "value": "inactive"},
      {"measurement": "inhibition", "setting": "[16]", "value": "inactive"},
      {"measurement": "fraction unbound", "setting": "[17]", "value": 0.0498},
      {"measurement": "inhibition", "setting": "[18]", "value": "inactive"},
      {"measurement": "inhibition", "setting": "[19]", "value": "inactive"},
      {"measurement": "half-life", "setting": "[20]", "value": 43.2, "unit": "min"},
      {"measurement": "inhibition", "setting": "[21]", "value": "inactive"},
      {"measurement": "Activity", "setting": "HCT-116 [22]", "value": 0.78, "unit": "%"},
      {"measurement": "Activity", "setting": "HCT-116 [23]", "value": 7.31, "unit": "%"},
      {"measurement": "inhibition", "setting": "[24]", "value": "inactive"},
      {"measurement": "inhibition", "setting": "[25]", "value": "inactive"},
      {"measurement": "inhibition", "setting": "[26]", "value": "inactive"},
      {"measurement": "inhibition", "setting": "[27]", "value": "inactive"},
      {"measurement": "inhibition", "setting": "[28]", "value": "inactive"},
      {"measurement": "inhibition", "setting": "[29]", "value": "inactive"},
      {"measurement": "inhibition", "setting": "[30]", "value": "inactive"},
      {"measurement": "inhibition", "setting": "[31]", "value": "inactive"},
      {"measurement": "inhibition", "setting": "[32]", "value": "inactive"},
      {"measurement": "AUC(0-inf)", "setting": "[33]", "value": 3950, "unit": "ng·h/mL"},
      {"measurement": "inhibition", "setting": "[34]", "value": "inactive"},
      {"measurement": "inhibition", "setting": "[35]", "value": "inactive"},
      {"measurement": "inhibition", "setting": "[36]", "value": "inactive"},
      {"measurement": "inhibition", "setting": "[37]", "value": "inactive"},
      {"measurement": "inhibition", "setting": "[38]", "value": "inactive"},
      {"measurement": "inhibition", "setting": "[39]", "value": "inactive"},
      {"measurement": "inhibition", "setting": "[40]", "value": "inactive"},
      {"measurement": "inhibition", "setting": "[41]", "value": "inactive"},
      {"measurement": "inhibition", "setting": "[42]", "value": "inactive"},
      {"measurement": "inhibition", "setting": "[43]", "value": "inactive"}
    ]}
  ]
}
